Assays:
Pgp efflux transport = conditions: 3 μmol/L, 5 min, without verapamil; Fig. 5; n = 3
locust brain barrier [1] = conditions: for Concentration-dependent ex vivo brain uptake profile: exposure 3, 10, 30 and 100 μmol/L for 5 min, Fig. 3, n = 3
Pgp transporter [2] = experiment: In vivo locust brain uptake (brain:hemolymph ratio) with or without co-injected Pgp inhibitor CsA; conditions: 15 min after injection, data not shown
Pgp transporter [3] = conditions: 3 and 10 μmol/L exposure, 5 min, with and without verapamil; Fig. 4; n = 3
Pgp transporter [4] = conditions: locust brain barrier model; ref Nielsen et al. [2011]; cited from earlier work
[5] = locust hemolymph; injection of 20 μL of 20 μmol/kg dose; samples at 0.08, 0.25, 0.75, 2 and 6 h; n = 6
Method: Clearance of test compounds from the hemolymph was measured by repeated sampling of 10 μL hemolymph from the individual locust at 5, 15, 45, 120, and 360 min after intrahemolymph administration (20 μL) of the test compound solution (20 μmol/kg body weight). The 10 μL hemolymph samples were added to microcentrifuge tubes (Eppendorf) containing 40 μL ice-cold insect buffer.

[6] = test system: Pgp transporter homologue (Mdr65); set-up: method as in Mayer et al. [2009]; conditions: Drosophila melanogaster; ref Mayer et al. [2009]; cited from earlier work
locust brain barrier [7] = test system: locust brain barrier; set-up: method as in Andersson et al. [2013]; conditions: locust ex vivo model; ref Andersson et al. [2013]; cited from earlier work
Pgp transporter [8] = conditions: locust ex vivo and mouse Pgp KO/WT; ref Andersson et al. [2013]; Doran et al. [2005]; cited from earlier work

SMILES: NC(=O)N1c2ccccc2C=Cc2ccccc21 [Cbz, carbamazepine]
- Ex vivo brain uptake when exposure temperature raised from 2°C to 30°C (Pgp efflux transport): markedly increased
- Ratio of permeabilities (dynamic range of the locust ex vivo model) (locust brain barrier [1]; Cbz (high permeability) versus atenolol (low permeability)): ~64
- Concentration-dependent ex vivo brain uptake profile (locust brain barrier [1]): linear increase

SMILES: CN(C)C(=O)C(CCN1CCC(O)(c2ccc(Cl)cc2)CC1)(c1ccccc1)c1ccccc1 [Loperamide, loperamide]
- Hemolymph concentration when injected alone or co-injected with CsA (Pgp transporter [2]): no difference
- Ex vivo brain uptake/concentration on co-exposure to verapamil (Pgp transporter [3]): significantly increased
- Concentration-dependent ex vivo brain uptake profile (locust brain barrier [1]): increased more than linearly

SMILES: C=C[C@H]1C[N@@]2CC[C@H]1C[C@@H]2[C@@H](O)c1ccnc2ccc(OC)cc12 [Quinidine, quinidine]
- Ex vivo brain uptake when exposure temperature raised from 2°C to 30°C (Pgp efflux transport): corresponding increase in quinidine uptake was not seen
- Uptake into the locust brain with Pgp inhibitor verapamil (Pgp transporter [4]): significantly increased

SMILES: CC(C)NCC(O)COc1cccc2ccccc12 (stereo not drawn) [Propranolol, propranolol]
- Elimination (drug elimination constant calculated from C = Coe^−kt) [5]: −0.98 ^1 h^−1

SMILES: COC(=O)c1ccccc1-c1c2ccc(=N)cc-2oc2cc(N)ccc12 [Rho123, rhodamine 123]
- Dm brain concentration when co-injected with the Pgp inhibitor CsA [6]: increases

SMILES: CC(NC(C)(C)C)C(=O)c1cccc(Cl)c1 (stereo not drawn) [Bupropion]
- Ex vivo brain uptake after increased exposure concentrations (locust brain barrier [7]): more than dose-related

SMILES: CN(C)CCCC1(c2ccc(F)cc2)OCc2cc(C#N)ccc21 (stereo not drawn) [citalopram]
- Pgp transporter efflux liability (Pgp transporter [8]): affected by Pgp transporter efflux

— publication PMC4186439, “Characterization of a novel brain barrier ex vivo insect-based P-glycoprotein screening model” (Pharmacology Research & Perspectives, 2014)
